From patent US20250382344A1, “Soluble GLP1/GIP/NPY2 Receptor Triple Agonists” (Boehringer Ingelheim International GmH, priority 2024, published 2025)
Like-named read-outs stand apart in the source and are kept apart here.

Key:
[1] = Solubility in 0.1 M phosphate buffer at pH 7; assay type: physicochemical; conditions: 0.1 M phosphate buffer at pH 7, 10 mg/mL final peptide concentration, shaking 2 hours at room temperature, peptides as TFA-salts; measured sample pH 6.5-7.0
[2] = target: T1, hNPY2R (Homo sapiens, UniProt P49146); test: hNPY2R CreLuc assay in 0.5% and 100% plasma (HEK-293 CRE-luciferase reporter cells); assay type: cell-based; conditions: HEK-293 reporter cells
T1 construct: expressed in transfected cells; host or cells: HEK-293 CRE-luciferase reporter cells
T1 sequence (P49146 1-381): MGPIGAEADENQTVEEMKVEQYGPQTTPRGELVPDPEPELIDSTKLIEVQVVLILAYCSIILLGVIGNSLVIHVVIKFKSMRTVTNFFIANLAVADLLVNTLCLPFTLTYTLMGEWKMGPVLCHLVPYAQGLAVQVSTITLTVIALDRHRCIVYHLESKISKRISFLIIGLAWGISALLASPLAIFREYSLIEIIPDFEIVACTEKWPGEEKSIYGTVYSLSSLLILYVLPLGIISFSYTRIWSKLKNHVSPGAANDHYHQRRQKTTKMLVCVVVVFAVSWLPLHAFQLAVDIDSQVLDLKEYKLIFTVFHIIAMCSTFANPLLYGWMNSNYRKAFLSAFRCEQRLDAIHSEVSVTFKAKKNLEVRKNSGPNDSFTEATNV
Excerpt: CHO and HEK-293 recombinant cell lines express a luciferase reporter gene under control of the CAMP responsive element (CRE). As a second recombinant protein the GLP-1 and NPY2 receptors were expressed in the reporter gene HEK cells, and the GIP receptor was expressed in the reporter gene CHO cells, respectively. Stimulation of these recombinant cells with an agonist leads to an increase of intracellular CAMP levels. In the presence of CAMP, the transcription factor CRE binding protein (CREB) binds to the CRE and to the CREB binding protein (CBP), which leads to transcription of the luciferase reporter gene. Peptides upon serial-dilution in 100% DMSO were transferred into 384-well assay plates with 5 μl pre-dispensed assay buffer (1×HBSS, 20 mM HEPES, pH7.4 supplemented with 0.5% human plasma) using acoustic dispensing on a Labcyte ECHO. Cryo-preserved transgenic reporter gene cells were thawed in assay buffer. 20 μl (10.000 cells/well) were added to the plate with the peptides and incubated for 4 hours at 37° C. in a humidified incubator. Following incubation, assay plates are equilibrated to room temperature, followed by addition of 25 μl of Bright-Glo™ Luciferase reagent, incubation at room temperature for 10 minutes and analysis of luminescence (Envision Reader). […] EC50 values were calculated by non-linear regression using sigmoid concentration-response with variable slope.
The same assays were run in the presence of 100% plasma with no additional buffer constituents.

[3] = target: T2, hGIPR (Homo sapiens, UniProt P48546); test: hGIPR CreLuc assay in 0.5% and 100% plasma (CHO CRE-luciferase reporter cells); assay type: cell-based
T2 construct: expressed in transfected cells; host or cells: CHO CRE-luciferase reporter cells
T2 sequence (P48546 22-466): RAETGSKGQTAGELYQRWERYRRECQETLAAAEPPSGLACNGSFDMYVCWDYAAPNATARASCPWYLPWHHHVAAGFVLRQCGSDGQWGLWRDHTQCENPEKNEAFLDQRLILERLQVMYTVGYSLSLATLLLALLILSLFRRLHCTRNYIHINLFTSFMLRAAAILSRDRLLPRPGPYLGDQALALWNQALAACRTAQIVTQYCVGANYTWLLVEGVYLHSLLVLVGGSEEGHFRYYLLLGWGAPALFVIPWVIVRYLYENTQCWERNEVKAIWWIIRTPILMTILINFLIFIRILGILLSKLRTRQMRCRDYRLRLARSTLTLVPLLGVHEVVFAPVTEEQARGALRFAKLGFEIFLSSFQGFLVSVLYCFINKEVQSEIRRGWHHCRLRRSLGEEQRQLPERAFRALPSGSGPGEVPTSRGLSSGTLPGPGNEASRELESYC

[4] = 100% human plasma, read-out: hNPY2R 100% hP
[5] = 0.5% human plasma, read-out: hGIPR 0.5% hP

CC[C@H](C)[C@H](NC(=O)[C@H](CO)NC(=O)[C@H](Cc1ccc(O)cc1)NC(=O)[C@H](CC(=O)O)NC(=O)[C@H](CO)NC(=O)[C@@H](NC(=O)[C@H](Cc1ccccc1)NC(=O)[C@@H](NC(=O)CNC(=O)[C@H](CCC(=O)O)NC(=O)C(C)(C)NC(=O)[C@@H](N)Cc1ccc(O)cc1)[C@@H](C)O)[C@@H](C)O)C(=O)NC(C)(C)C(=O)N[C@@H](CC(C)C)C(=O)N[C@@H](CCC(=O)O)C(=O)N[C@@H](CCCCN)C(=O)N[C@@H](CCC(N)=O)C(=O)N[C@@H](C)C(=O)N[C@@H](CCC(N)=O)C(=O)NC(C)(C)C(=O)N[C@@H](C)C(=O)N[C@@H](Cc1ccccc1)C(=O)N[C@H](C(=O)N[C@@H](CCCNC(=N)N)C(=O)N[C@@H](Cc1c[nH]cn1)C(=O)N[C@@H](CC(C)C)C(=O)N[C@@H](CC(C)C)C(=O)N[C@@H](CC(N)=O)C(=O)N[C@@H](CCCCNC(=O)[C@@H](N)CCCCNC(=O)CC[C@H](NC(=O)CC[C@H](NC(=O)CC[C@H](NC(=O)CC[C@H](NC(=O)CC[C@H](NC(=O)CC[C@H](NC(=O)CCCCCCCCCCCCCCCCC(=O)O)C(=O)O)C(=O)O)C(=O)O)C(=O)O)C(=O)O)C(=O)O)C(=O)NC(C)(C)C(=O)N[C@H](C(=O)N[C@@H](CCCNC(=N)N)C(=O)N[C@@H](CCC(N)=O)C(=O)N[C@@H](CCCNC(=N)N)C(=O)N[C@@H](Cc1ccc(O)cc1)C(N)=O)[C@@H](C)O)C(C)C [Compound 107, Y-Aib-E-G-T-F-T-S-D-Y-S-I-Aib-L-E-K-Q-A-Q-Aib-A-F-V-R-H-L-L-N-K(1,3)-Aib-T-R-Q-R-Y-NH2.C18DA-gGlu-gGlu-gGlu-gGlu-gGlu-gGlu-eLys(1,2)]
solubility at 2 h [1]: 3900 µg/mL | EC50 ([2]; 0.5% human plasma, read-out: hNPY2R 0.5% hP): 13.3 nM | EC50 [2, 4]: 20.3 nM | EC50 [3, 5]: 0.7 nM

CC[C@H](C)[C@H](NC(=O)[C@H](CC(C)C)NC(=O)[C@H](Cc1c[nH]cn1)NC(=O)[C@H](CCCNC(=N)N)NC(=O)[C@@H](NC(=O)[C@H](Cc1ccccc1)NC(=O)[C@H](C)NC(=O)C(C)(C)NC(=O)[C@H](CCC(N)=O)NC(=O)[C@H](C)NC(=O)[C@H](CCC(N)=O)NC(=O)[C@H](CCCCN)NC(=O)[C@H](CCC(=O)O)NC(=O)[C@H](CC(C)C)NC(=O)C(C)(C)NC(=O)[C@@H](NC(=O)[C@H](CO)NC(=O)[C@H](Cc1ccc(O)cc1)NC(=O)[C@H](CC(=O)O)NC(=O)[C@H](CO)NC(=O)[C@@H](NC(=O)[C@H](Cc1ccccc1)NC(=O)[C@@H](NC(=O)CNC(=O)[C@H](CCC(=O)O)NC(=O)C(C)(C)NC(=O)[C@@H](N)Cc1ccc(O)cc1)[C@@H](C)O)[C@@H](C)O)[C@@H](C)CC)C(C)C)C(=O)N[C@@H](CC(N)=O)C(=O)N[C@@H](CCCCNC(=O)COCCOCCNC(=O)CC[C@H](NC(=O)CC[C@H](NC(=O)CC[C@H](NC(=O)CC[C@H](NC(=O)CC[C@H](NC(=O)CCCCCCCCCCCCCCCCC(=O)O)C(=O)O)C(=O)O)C(=O)O)C(=O)O)C(=O)O)C(=O)NC(C)(C)C(=O)N[C@H](C(=O)N[C@@H](CCCNC(=N)N)C(=O)N[C@@H](CCC(N)=O)C(=O)N[C@@H](CCCNC(=N)N)C(=O)N[C@@H](Cc1ccc(O)cc1)C(N)=O)[C@@H](C)O [Compound 140, Y-Aib-E-G-T-F-T-S-D-Y-S-I-Aib-L-E-K-Q-A-Q-Aib-A-F-V-R-H-L-I-N-K(1,3)-Aib-T-R-Q-R-Y-NH2.C18DA-gGlu-gGlu-gGlu-gGlu-gGlu-OEG(1,2)]
solubility at 2 h [1]: 4900 µg/mL | EC50 [2, 4]: 141 nM | EC50 [3, 5]: 0.2 nM | EC50 ([3]; 100% human plasma, read-out: hGIPR 100% hP): 8 nM
